Measurements reported in ChEMBL document CHEMBL1201862, “PubChem BioAssay data set” (2004).
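Interpolation was linear, between the two tested concentrations surrounding the appropriate level; five concentrations were tested over 48 hours in 96-well plates. GI50: concentration for 50% inhibition of growth.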 Active and inactive are the calls of the source. No stated cut-off is given here; in the data, active = GI50 up to about 1.1 µM and inactive = higher.

How the values were obtained:
Test in all cases: DTP human tumour cell line panel, 48 h
[1] = system: IGROV-1
[2] = system: SK-MEL-28
[3] = system: SK-OV-3
[4] = system: UACC-257
[5] = system: CCRF-CEM
[6] = system: HCT-116
[7] = system: A549
[8] = system: HL-60
[9] = system: ACHN
[10] = system: MDA-N
[11] = system: SN12C
[12] = system: SR
[13] = system: OVCAR-5
[14] = system: NCI-H226
[15] = system: NCI/ADR-RES
[16] = system: SF-268
[17] = system: TK-10
[18] = system: UO-31

Measured: GI50

O=C(N/N=C1/C(=O)c2c3ccccc3cc3cccc1c23)c1cccc(Cl)c1
inactive: [1] 2.78 µM | [2] > 100 µM | [3] > 100 µM | [4] > 100 µM | [5] 67.6 µM | [6] > 100 µM | [7] > 100 µM | [8] > 100 µM | [9] 33 µM | [10] > 100 µM | [11] > 100 µM | [12] > 100 µM | [13] > 100 µM | [14] > 100 µM | [15] > 100 µM

CC(Oc1ccccc1Cl)C(=O)NN1C(=O)CC(=O)N(c2ccccc2)C1=S (centres undefined)
inactive: [1] 52.6 µM | [2] 88.3 µM | [3] 51.5 µM | [4] 55.2 µM | [16] 86.7 µM | [6] 34.9 µM | [7] 41.1 µM | [8] 18.7 µM | [9] 38.3 µM | [10] 82.2 µM | [11] > 100 µM | [17] 74.8 µM | [12] 33.3 µM | [13] > 100 µM | [14] 38.6 µM | [15] 38.5 µM | [18] 53 µM

Cc1ccc(S(=NS(=O)(=O)c2ccc(C)cc2)c2ccc(C)cc2)cc1
inactive: [2] > 100 µM | [4] > 100 µM | [16] 76.2 µM | [5] 57 µM | [6] 56.9 µM | [7] 62.5 µM | [8] 34.7 µM | [9] > 100 µM | [10] 77.1 µM | [11] > 100 µM | [17] > 100 µM | [12] 36.9 µM | [13] > 100 µM | [14] > 100 µM | [15] 38.7 µM | [18] 63.7 µM

S=c1[nH]n2c(CCCCCCCCc3nnc4sc(=S)[nH]n34)nnc2s1
inactive: [1] > 100 µM | [2] > 100 µM | [3] > 100 µM | [4] > 100 µM | [16] > 100 µM | [5] 83 µM | [6] > 100 µM | [7] > 100 µM | [8] > 100 µM | [9] > 100 µM | [10] > 100 µM | [11] > 100 µM | [12] > 100 µM | [13] > 100 µM | [14] > 100 µM | [15] > 100 µM | [18] > 100 µM

O=Cc1ccc2c(c1)CC1(Cc3ccccc3C1)C2
inactive: [1] 20.5 µM | [3] 38.1 µM | [4] 20.5 µM | [5] 7.78 µM | [6] > 100 µM | [7] > 100 µM | [8] 19.4 µM | [9] 22.1 µM | [10] 18.7 µM | [11] 18.1 µM | [17] 36.6 µM | [12] 2.82 µM | [13] > 100 µM | [14] 22.5 µM | [15] 26.5 µM | [18] 31.3 µM

Cc1c(C)c(S(=O)(=O)N(CCCN)OCCCN)c(C)c2c1OC(C)(C)C2
inactive: [1] 22.9 µM | [2] 83.6 µM | [3] 39.4 µM | [4] 34.3 µM | [16] 27.6 µM | [5] 30 µM | [6] 35.3 µM | [7] 44.1 µM | [9] 29.6 µM | [10] 19 µM | [11] 61.1 µM | [17] 45.5 µM | [12] 34.8 µM | [13] 23.5 µM | [14] 72.1 µM | [15] > 100 µM | [18] 33.4 µM

O=C1CN(c2cccc(C(F)(F)F)c2)C(=O)CN1NCNN1CC(=O)N(c2cccc(C(F)(F)F)c2)CC1=O
inactive: [1] > 100 µM | [2] > 100 µM | [3] > 100 µM | [4] > 100 µM | [16] > 100 µM | [5] > 100 µM | [6] > 100 µM | [7] > 100 µM | [8] > 100 µM | [9] > 100 µM | [10] > 100 µM | [11] > 100 µM | [17] > 100 µM | [12] > 100 µM | [13] > 100 µM | [15] > 100 µM | [18] > 100 µM

CC(=O)N1C(Nc2nccs2)CCN1c1ccccc1 (centres undefined)
inactive: [1] > 10 µM | [2] > 10 µM | [4] > 10 µM | [16] > 10 µM | [5] > 10 µM | [6] > 10 µM | [7] > 10 µM | [8] > 10 µM | [9] > 10 µM | [10] > 10 µM | [11] > 10 µM | [17] > 10 µM | [12] > 10 µM | [13] > 10 µM | [14] > 10 µM | [15] > 10 µM

COC(=O)/C(C#N)=C(/NCCN)Nc1ccccc1
inactive: [1] > 100 µM | [2] > 100 µM | [3] > 100 µM | [4] > 100 µM | [16] > 100 µM | [6] > 100 µM | [7] > 100 µM | [8] > 100 µM | [9] > 100 µM | [10] > 100 µM | [11] > 100 µM | [17] > 100 µM | [12] > 100 µM | [13] > 100 µM | [14] > 100 µM | [15] > 100 µM | [18] > 100 µM

CN(C)/C=N/S(=O)(=O)c1nn2c(C=O)c(-c3ccccc3)nc2s1
inactive: [2] 9.2 µM | [3] > 80.5 µM | [4] 24.2 µM | [16] 29.5 µM | [5] 2.96 µM | [6] 3.26 µM | [7] 26.6 µM | [9] 5.65 µM | [10] 10.2 µM | [11] 13.5 µM | [17] 12.9 µM | [12] 5.74 µM | [13] 47.1 µM | [14] 21.4 µM | [15] 23.2 µM | [18] 5.36 µM

N#CC(C#N)=C/C=C/c1ccccc1[N+](=O)[O-]
inactive: [1] > 10 µM | [2] 2.11 µM | [3] > 10 µM | [4] 2.68 µM | [16] > 10 µM | [5] 7.57 µM | [6] 1.87 µM | [7] > 10 µM | [8] 6.05 µM | [9] 4.26 µM | [10] 2.44 µM | [11] > 10 µM | [17] > 10 µM | [12] 3.54 µM | [14] > 10 µM | [15] 2.16 µM | [18] 5.78 µM

Cc1c(-c2ccccc2)nn2cc(-c3ccccc3)nnc12
inactive: [1] 21.7 µM | [2] 27.6 µM | [3] 39.3 µM | [4] 23.4 µM | [16] 28.6 µM | [5] 27.4 µM | [6] 20.7 µM | [7] 17.5 µM | [9] 46.3 µM | [10] 19.7 µM | [11] 37.9 µM | [17] 42.4 µM | [12] 33.5 µM | [13] 30.7 µM | [14] 21.2 µM | [15] 39.1 µM | [18] 29.1 µM

Cc1ccc(NC(=O)c2cc(S(=O)(=O)Nc3n[nH]c(=O)n3-c3ccccc3)c(S)cc2Cl)cc1
inactive: [1] > 100 µM | [2] > 100 µM | [3] > 100 µM | [4] > 100 µM | [16] > 100 µM | [6] > 100 µM | [7] > 100 µM | [8] > 100 µM | [10] > 100 µM | [11] > 100 µM | [17] > 100 µM | [12] > 100 µM | [13] > 100 µM | [14] > 100 µM | [15] > 100 µM | [18] > 100 µM

CC(=O)Oc1ccc2oc(=O)cc(C)c2c1
inactive: [1] > 100 µM | [2] > 100 µM | [4] > 100 µM | [16] > 100 µM | [5] > 100 µM | [6] > 100 µM | [7] > 100 µM | [8] > 100 µM | [9] > 100 µM | [10] > 100 µM | [11] > 100 µM | [17] > 100 µM | [12] > 100 µM | [14] > 100 µM | [15] > 100 µM | [18] > 100 µM

Cc1ccc(Cc2n[nH]c(=O)n2-c2ccccc2)cc1
inactive: [1] > 100 µM | [2] > 100 µM | [4] > 100 µM | [16] > 100 µM | [6] > 100 µM | [7] > 100 µM | [8] > 100 µM | [9] > 100 µM | [10] > 100 µM | [11] > 100 µM | [17] > 100 µM | [12] > 100 µM | [13] > 100 µM | [14] > 100 µM | [15] > 100 µM | [18] 86.7 µM

CN(C)c1ncc(-c2c[nH]c3ccccc23)nc1-c1c[nH]c2ccccc12
inactive: [1] 3.24 µM | [2] 2.89 µM | [3] 7.66 µM | [4] 1.9 µM | [16] 10.6 µM | [6] 3.13 µM | [7] 3.33 µM | [8] 2.02 µM | [9] 2.67 µM | [10] 2.08 µM | [11] 2.88 µM | [17] 8.59 µM | [12] 3.24 µM | [13] 4.68 µM | [15] 9.95 µM | [18] 3.73 µM

COC(=O)n1c(=O)n(-c2ccccc2)c(=O)n1C(=O)OC
inactive: [1] > 100 µM | [2] > 100 µM | [3] > 100 µM | [4] > 100 µM | [16] > 100 µM | [5] > 100 µM | [6] > 100 µM | [7] > 100 µM | [8] > 100 µM | [10] > 100 µM | [11] > 100 µM | [17] > 100 µM | [12] > 100 µM | [13] > 100 µM | [14] > 100 µM | [15] > 100 µM | [18] > 100 µM
